Measurements reported in patent publication US4745124A, “Orally effective anti-hypertensive agents” (priority 1983, dated 1988).
Where two headings read alike, the source gives them in different places. Each block holds one molecule with its values, some of them ahead of it. No end group written: not given here. *: point of attachment. Bz = O=C(c1ccccc1)*

Assays:
[1] = biological target: T1, angiotensin converting enzyme (human urinary ACE) (Homo sapiens, UniProt P12821); assay: ACE activity assay, I50 (Example 216A); assay type: biochemical; conditions: Benzoyl-GlyHisLeu 1×10^-4 M, Hepes pH 8.0, 37° C, in vitro
T1 construct: ACE purified from human urine; from tissue; host or cells: human urine (ultrafiltration and Sephacryl S-200, first eluting peak; prepared as in Ryan et al., Tissue and Cell 10, 555 (1978))

[2] = system: pressor effects of angiotensin I; assay: intravenous effectiveness: blood pressure response to angiotensin I in anesthetized rats; assay type: in vivo, rat; conditions: for t1/2: recovery of one half of lost responsiveness to angiotensin I 400 ng/kg; for Blood Pressure Response to 400 ng/kg Angiotensin I: i.v. 2 μmol/kg, Ex. 232
Experimental: (§1) Anesthetized rats were prepared as described in Example 228. After the responsiveness of a given rat to angiotensin I was established, the named compound at 2 μmol/kg, in a volume of 15 μl of 0.01N sodium bicarbonate, was injected via a femoral vein. At timed intervals, the effects of angiotensin I, 400 ng/kg, on mean arterial blood pressure were tested. Results are shown below:
as §1, with “231.” for “228.”, “compound,” for “compound”
Anesthetized rats were prepared as described in Example 239. The animals were administered the named compound via a femoral vein in 15 μl of 0.01N sodium bicarbonate, after the control response to 400 ng/kg of angiotensin I was measured. […] The time required for recovery of one half of the lost responsiveness to angiotensin I, following injection of the named compound, was designated t1/2. […] Results are shown for two dose levels:
Anesthetized rats were prepared as described in Example 242. The named compound was administered intravenously via a femoral vein, at the stated dose, in 15 μl of 0.01N sodium bicarbonate. The response to intravenous administration was a rapid decrease in responsiveness to Angtiotensin I, 400 ng/kg, followed by a gradual recovery to the pretreatment level of responsiveness. The time required for recovery of one half the lost responsiveness to angiotensin I, following injection of the named compound, is designated t1/2. […] Results are shown for the three dose levels:
The intravenous effectiveness of the named compound was examined by following the procedure described in Example 244 except that 1 μmole/kg of the drug was given intravenously. The results are shown below:
The intravenous effectiveness of the named compound was examined by following the procedure described in Example 246 except that 1 μmole/Kg of the drug was given intravenously.

[3] = system: pressor effects of angiotensin I; assay: oral effectiveness: blood pressure response to angiotensin I in anesthetized rats; assay type: in vivo, rat; conditions: oral 20 μmol/kg
Experimental: Rats (210-290 g body weight) were fasted overnight and then anesthetized with intraperitoneal pentobarbital, 50-60 mg/kg. Tracheostomy was performed and the animals were ventilated mechanically. A cannula was inserted into a femoral vein for injection of angiotensin I or II, and a second cannula was inserted into a common carotid artery for direct measurement of arterial blood pressure. Heparin, 1,000 units, was injected via the femoral vein to prevent coagulation. Blood pressure was measured with a pressure transducer connected to a polygraph. The rats were injected with 80 ng of angiotensin I or angiotensin II in 20 μl of 0.9 g % NaCl; an amount of antiotensin I or II sufficient to raise mean arterial blood pressure by 27-40 mm Hg. After the responsiveness of a given rat to angiotensins I and II was established, compound (I), at 2 or 5 mg/kg (drug dissolved in 0.5 ml of H2 O plus 10 μl of 1N NaHCO3), was given via a stomach tube. At timed intervals, the effects of 80 ng of angiotensin I or angiotensin II on mean arterial blood pressure were tested.
Rats were prepared as described in Example 222. Compound (II) [N-benzoyl-L-phenylalanylthiopropanoyl)-L-proline] was given orally, via a stomach tube, at a dose of 12 mg/kg or 20 mg/kg. Compound (II) was dissolved in 0.5 ml of H2 O plus 10 μl of 1N NaHCO3. In all other respects, the experimental preparations were exactly as described in Example 222.
Rats (210-290 g body weight) were fasted overnight and then anesthetized with intraperitoneal pentobarbital, 50-60 mg/kg. Tracheostomy was performed and the animals were ventilated mechanically. A cannula was inserted into a femoral vein for injection of angiotensin I or II, and a second cannula was inserted into a common carotid artery for direct measurement of arterial blood pressure. Heparin, 1,000 units, was injected via the femoral vein to prevent coagulation. Blood pressure was measured with a pressure transducer connected to a polygraph. The rats were injected with 160 ng of angiotensin I or 80 ng of angiotensin II in 20 μl of 0.9 g % NaCl; an amount of angiotensin I or II sufficient to raise mean arterial blood pressure by 27-40 mm Hg. After the responsiveness of a given rat to angiotensins I and II was established, compound (B) at 10 mg (drug dissolved in 0.5 ml of H2 O plus 10 μl of 1N NaHCO3), was given via a stomach tube. At timed intervals, the effects of 160 ng of angiotensin I or 80 ng of angiotensin II on mean arterial blood pressure were tested. Results are shown below:
Rats (210-290 g body weight) were fasted overnight and then anesthetized with intraperitoneal pentobarbital, 50-60 mg/kg. Tracheostomy was performed and the animals were ventilated mechanically. A cannula was inserted into a femoral vein for injection of angiotensin I, and a second cannula was inserted into a common carotid artery for direct measurement of arterial blood pressure. Heparin, 1,000 units, was injected via the femoral vein to prevent coagulation. Blood pressure was measured with a pressure transducer connected to a polygraph. The rats were injected with 400 ng/kg of angiotensin I in 20 μl of 0.9 g % NaCl; an amount of angiotensin I sufficient to raise mean arterial blood pressure by 39 mm Hg. After the responsiveness of a given rat to angiotensin I was established, the named compound at 17 μmol/kg (drug dissolved in 0.15 ml of H2 O plus 10 μl of 1N NaHCO3), was given via a stomach tube. At timed intervals, the effects of 400 ng/kg of angiotensin I on mean arterial blood pressure were tested. Results are shown below:
Rats (190-290 g body weight) were fasted overnight and then anesthetized with intraperitoneal pentobarbital, 50-60 mg/kg. Tracheostomy was performed and the animals were ventilated mechanically. A cannula was inserted into a femoral vein for injection of angtiotensin I, and a second cannula was inserted into a common carotid artery for direct measurement of arterial blood pressure. […]

[4] = human urinary ACE, read-out: I50

T1 sequence (P12821 30-1232 limits assumed): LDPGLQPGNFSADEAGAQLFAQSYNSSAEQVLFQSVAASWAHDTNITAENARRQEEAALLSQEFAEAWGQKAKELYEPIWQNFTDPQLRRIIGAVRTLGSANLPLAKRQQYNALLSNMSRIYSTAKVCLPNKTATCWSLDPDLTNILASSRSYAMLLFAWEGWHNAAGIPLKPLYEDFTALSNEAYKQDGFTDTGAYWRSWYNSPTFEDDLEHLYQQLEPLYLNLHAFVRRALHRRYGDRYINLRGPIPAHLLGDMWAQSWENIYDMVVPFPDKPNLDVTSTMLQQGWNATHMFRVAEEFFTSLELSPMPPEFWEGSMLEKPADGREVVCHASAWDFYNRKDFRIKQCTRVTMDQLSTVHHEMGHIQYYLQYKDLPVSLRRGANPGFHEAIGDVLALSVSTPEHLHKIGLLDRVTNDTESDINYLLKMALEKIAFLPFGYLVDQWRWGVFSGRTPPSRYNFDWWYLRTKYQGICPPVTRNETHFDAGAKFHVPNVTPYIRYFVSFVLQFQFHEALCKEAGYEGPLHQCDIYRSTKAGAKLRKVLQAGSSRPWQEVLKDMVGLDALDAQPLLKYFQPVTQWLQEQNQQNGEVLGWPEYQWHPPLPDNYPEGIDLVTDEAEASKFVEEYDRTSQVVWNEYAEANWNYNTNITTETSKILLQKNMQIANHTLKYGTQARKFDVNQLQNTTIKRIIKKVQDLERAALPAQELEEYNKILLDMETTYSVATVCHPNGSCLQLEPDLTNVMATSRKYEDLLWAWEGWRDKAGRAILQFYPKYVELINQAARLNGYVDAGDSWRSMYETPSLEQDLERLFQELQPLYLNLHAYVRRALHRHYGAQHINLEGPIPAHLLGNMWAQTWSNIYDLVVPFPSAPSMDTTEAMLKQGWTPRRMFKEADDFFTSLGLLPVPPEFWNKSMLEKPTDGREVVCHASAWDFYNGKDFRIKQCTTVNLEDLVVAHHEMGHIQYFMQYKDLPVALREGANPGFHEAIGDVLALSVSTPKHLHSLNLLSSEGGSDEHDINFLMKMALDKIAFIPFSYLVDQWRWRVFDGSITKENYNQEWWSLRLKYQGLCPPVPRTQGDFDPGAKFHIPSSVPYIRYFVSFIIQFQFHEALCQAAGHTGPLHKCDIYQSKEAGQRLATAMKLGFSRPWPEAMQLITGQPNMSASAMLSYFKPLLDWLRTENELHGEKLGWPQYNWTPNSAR

IC50 [1, 4]: 0.7 µM
Molecule: O=C(NC(Cc1ccccc1)C(=O)SCCC(=O)N1CCC[C@H]1C(=O)O)c1ccccc1 (stereo partly drawn) [(III), 3-benzoylphenylalanylthio-propanoyl-L-proline]

IC50 [1, 4]: 0.016 µM
Molecule: C[C@H](CSC(=O)[C@H](Cc1ccccc1)NC(=O)c1ccccc1)C(=O)N1CCC[C@H]1C(=O)O [Example 196, N-[3-(benzoyl-L-phenylalanylthio)-2-D-methyl-propanoyl]-L-proline]

IC50 [1, 4]: 0.009 µM
Molecule: C[C@H](CSC(=O)[C@@H](Cc1ccccc1)NC(=O)c1ccccc1)C(=O)N1CCC[C@H]1C(=O)O [Example 197, N-[3-(benzoyl-D-phenylalanylthio)-2-D-methyl-propanoyl]-L-proline]

Molecule: N[C@@H](CS)C(=O)O [L-cysteine]
IC50 ([1]; I50, human urinary ACE): 200 µM

IC50 [1, 4]: 1000 µM
Molecule: O=C(O)[C@@H]1CCCN1 [L-proline]

Molecule: C[C@H](CSC(=O)CNC(=O)c1ccccc1)C(=O)N1CCC[C@H]1C(=O)O [N-alpha-[3-(N-alpha-benzoylglycylthio)-2-D-methylpropanoyl]-L-proline]
t1/2 ([2]; i.v. 0.23 μmol/kg): 26 min | t1/2 ([2]; i.v. 0.7 μmol/kg): 36 min | Blood Pressure Response to 400 ng/kg of Angiotensin I ([3]; 1 min, Ex. 239): 95 % of Control | Blood Pressure Response to 400 ng/kg of Angiotensin I ([3]; 6 min, Ex. 239): 95 % of Control | Blood Pressure Response to 400 ng/kg of Angiotensin I ([3]; 11 min, Ex. 239): 95 % of Control | Blood Pressure Response to 400 ng/kg of Angiotensin I ([3]; 22 min, Ex. 239): 92 % of Control | Blood Pressure Response to 400 ng/kg of Angiotensin I ([3]; 28 min, Ex. 239): 68 % of Control | Blood Pressure Response to 400 ng/kg of Angiotensin I ([3]; 33 min, Ex. 239): 61 % of Control | Blood Pressure Response to 400 ng/kg of Angiotensin I ([3]; 39 min, Ex. 239): 58 % of Control | Blood Pressure Response to 400 ng/kg of Angiotensin I ([3]; 45 min, Ex. 239): 47 % of Control | Blood Pressure Response to 400 ng/kg of Angiotensin I ([3]; 60 min, Ex. 239): 47 % of Control | Blood Pressure Response to 400 ng/kg of Angiotensin I ([3]; 67 min, Ex. 239): 45 % of Control | Blood Pressure Response to 400 ng/kg of Angiotensin I ([3]; 74 min, Ex. 239): 47 % of Control | Blood Pressure Response to 400 ng/kg of Angiotensin I ([3]; 82 min, Ex. 239): 47 % of Control | Blood Pressure Response to 400 ng/kg of Angiotensin I ([3]; 92 min, Ex. 239): 47 % of Control | Blood Pressure Response to 400 ng/kg of Angiotensin I ([3]; 137 min, Ex. 239): 55 % of Control | Blood Pressure Response to 400 ng/kg of Angiotensin I ([3]; 142 min, Ex. 239): 55 % of Control | Blood Pressure Response to 400 ng/kg of Angiotensin I ([3]; 152 min, Ex. 239): 47 % of Control | Blood Pressure Response to 400 ng/kg of Angiotensin I ([3]; 185 min, Ex. 239): 63 % of Control | Blood Pressure Response to 400 ng/kg of Angiotensin I ([3]; 207 min, Ex. 239): 79 % of Control | Blood Pressure Response to 400 ng/kg of Angiotensin I ([3]; 230 min, Ex. 239): 74 % of Control

IC50 [1, 4]: 0.025 µM
Molecule: C[C@H](CSC(=O)[C@H](Cc1ccccc1)NC(=O)[C@H](CCCCNC(=O)OC(C)(C)C)NC(=O)C1CCCC1)C(=O)N1CCC[C@H]1C(=O)O [N-alpha-[3-(N-alpha-cyclopentylcarbonyl-N-epsilon-tert-butyloxycarbonyl-L-lysyl-L-phenylalanylthio)-2-D-methylpropanoyl]-L-proline]

Molecule: C[C@H](CSC(=O)[C@H](Cc1ccccc1)NC(=O)OC(C)(C)C)C(=O)N1CCC[C@H]1C(=O)O [N-alpha-[3-(N-alpha-tert-butyloxycarbonyl-L-phenylalanylthio)-2-D-methylpropanoyl]-L-proline]
Blood Pressure Response to 400 ng/kg Angiotensin I ([2]; 0.5 min): 0 % of Control | Blood Pressure Response to 400 ng/kg Angiotensin I ([2]; 3 min): 19 % of Control | Blood Pressure Response to 400 ng/kg Angiotensin I ([2]; 9 min): 19 % of Control | Blood Pressure Response to 400 ng/kg Angiotensin I ([2]; 13 min): 22 % of Control | Blood Pressure Response to 400 ng/kg Angiotensin I ([2]; 18 min): 31 % of Control | Blood Pressure Response to 400 ng/kg Angiotensin I ([2]; 22 min): 31 % of Control | Blood Pressure Response to 400 ng/kg Angiotensin I ([2]; 34 min): 50 % of Control | Blood Pressure Response to 400 ng/kg Angiotensin I ([2]; 47 min): 63 % of Control | Blood Pressure Response to 400 ng/kg Angiotensin I ([2]; 65 min): 78 % of Control | Blood Pressure Response to 400 ng/kg Angiotensin I ([2]; 103 min): 75 % of Control | Blood Pressure Response to 400 ng/kg Angiotensin I ([2]; 113 min): 94 % of Control | Blood Pressure Response to 400 ng/kg of Angiotensin I ([3]; 3 min, Ex. 233): 100 % of Control | Blood Pressure Response to 400 ng/kg of Angiotensin I ([3]; 11 min, Ex. 233): 43 % of Control | Blood Pressure Response to 400 ng/kg of Angiotensin I ([3]; 22 min, Ex. 233): 27 % of Control | Blood Pressure Response to 400 ng/kg of Angiotensin I ([3]; 29 min, Ex. 233): 24 % of Control | Blood Pressure Response to 400 ng/kg of Angiotensin I ([3]; 34 min, Ex. 233): 22 % of Control | Blood Pressure Response to 400 ng/kg of Angiotensin I ([3]; 51 min, Ex. 233): 19 % of Control

IC50 [1, 4]: 400 µM
Molecule: O=C(N[C@@H](Cc1ccccc1)C(=O)O)c1ccccc1 [benzoyl-Phe]

IC50 [1, 4]: 40 µM
Molecule: N[C@@H](CCC(=O)N[C@@H](CS)C(=O)NCC(=O)O)C(=O)O [γ Glu--Cys--Gly (glutathione), γ Glu--Cys--Gly]

Molecule: < Glu--Cys--Pro
IC50 [1, 4]: 4 µM

Molecule: Bz-Gly-Cys-Pro
IC50 [1, 4]: 0.5 µM

Molecule: Bz-Phe-Ala-Pro
IC50 [1, 4]: 0.1 µM

Molecule: Bz-Phe-Cys-Pro
IC50 [1, 4]: 0.6 µM

Molecule: Cys--Pro
IC50 [1, 4]: 11 µM

Molecule: Phe--Ala--Pro
IC50 [1, 4]: 0.2 µM

Molecule: acetyl-Cys--Pro
IC50 [1, 4]: 5 µM

Molecule: γ Glu--Cys--Pro
IC50 [1, 4]: 11 µM
